For one test, the target named is T1, TLR7 (Homo sapiens, UniProt Q9NYK1).
T1 construct: host or cells: HEK293 (HEK-BLUE-hTLR7)
T1 sequence (Q9NYK1 27-1049): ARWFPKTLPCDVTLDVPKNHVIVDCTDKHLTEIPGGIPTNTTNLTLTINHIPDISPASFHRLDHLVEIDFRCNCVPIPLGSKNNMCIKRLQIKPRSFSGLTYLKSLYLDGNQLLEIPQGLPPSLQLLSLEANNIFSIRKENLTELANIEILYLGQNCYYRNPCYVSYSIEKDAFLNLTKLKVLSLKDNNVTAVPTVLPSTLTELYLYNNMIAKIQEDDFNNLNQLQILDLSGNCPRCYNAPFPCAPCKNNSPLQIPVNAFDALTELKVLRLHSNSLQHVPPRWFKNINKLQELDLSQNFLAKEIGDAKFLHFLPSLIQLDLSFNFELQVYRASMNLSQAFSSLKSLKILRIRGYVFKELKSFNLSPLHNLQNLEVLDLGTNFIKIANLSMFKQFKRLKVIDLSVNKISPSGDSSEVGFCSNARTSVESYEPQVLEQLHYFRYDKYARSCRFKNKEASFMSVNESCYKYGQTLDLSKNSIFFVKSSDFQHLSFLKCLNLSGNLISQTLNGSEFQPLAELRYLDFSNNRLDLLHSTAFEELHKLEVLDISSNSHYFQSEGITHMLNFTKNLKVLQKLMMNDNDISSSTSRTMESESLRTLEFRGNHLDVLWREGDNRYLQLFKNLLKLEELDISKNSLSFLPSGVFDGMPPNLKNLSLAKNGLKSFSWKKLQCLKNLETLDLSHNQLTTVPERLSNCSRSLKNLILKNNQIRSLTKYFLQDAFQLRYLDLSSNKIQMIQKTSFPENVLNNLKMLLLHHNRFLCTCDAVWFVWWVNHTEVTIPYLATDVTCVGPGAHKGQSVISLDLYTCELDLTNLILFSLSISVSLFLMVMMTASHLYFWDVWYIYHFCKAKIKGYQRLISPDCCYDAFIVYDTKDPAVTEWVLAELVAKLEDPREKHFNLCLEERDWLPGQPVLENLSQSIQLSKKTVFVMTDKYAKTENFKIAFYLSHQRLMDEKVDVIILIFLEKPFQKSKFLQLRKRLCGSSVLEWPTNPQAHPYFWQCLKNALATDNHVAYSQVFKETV
In words: TLR7 cell based assay (HEK-BLUE-hTLR7, SEAP reporter linked to NF-κB activation). The following applies: HEK-BLUE-hTLR7 cells, 24 hours treatment, SEAP/QUANTI-Blue readout. On the procedure: In this assay, the bioactivity of compound of formula (I) was measured using a cell based assay. The assay was performed in human embryonic kidney cells (HEK293) expressing TLR7 or other TLR family members such as TLR4, and TLR9 (for selectivity screens). The activity of specific TLR agonists was assessed using the secretory embryonic alkaline phosphatase (SEAP) reporter gene that is linked to NF-κB activation in response to TLR stimulation. The SEAP activity was measured using the Quanti-Blue substrate (InvivoGen) after TLR agonist treatment.
The detailed experimental method is as follow:
HEK-BLUE-hTLR7 cell line was purchased from InvivoGen. The cells were cultured in Dulbecco's Modified Eagle's Media containing 4.5 g/L […] (Sigma-Aldrich) and 10% FBS. The cells were cultured at 37° C., 95% humidity and 5% CO2.
[…] A known TLR8 agonist was added as positive control and 1 μl of DMSO was added as negative control.
The cells were prepared as follows. The cells were removed from the incubator and growth medium was discarded. The cells were gently rinsed with pre-warmed 10 ml PBS for a T-150 flask. 12 ml pre-warmed growth medium was added, and the cells were detached by tapping the flask. Cell clumps were dissociated by gently pipetting up and down. The cells were counted. Single cell suspension was prepared at 200,000 cells per ml in growth medium and 200 μl of the cell suspension (40,000 cells per well) were immediately added to each well of the plate. The final DMSO concentration of each well was 0.5%.
The cells were cultured and treated with the compounds at 37° C., 5% CO2 for 24 hours.
20 μL of the supernatant of each well were added to 180 μL of QUANTI-Blue, and the plates were incubated at 37° C. for 1.5 hour. Optical density was measured using a spectrophotometer at 650 nm (OD data). Activivation was calculated by using the equation below: Activivation %=(Compound OD mean value−DMSO OD mean value)/(positive control OD mean value−DMSO OD mean value)×100
The data were analyzed using the GraphPad to get EC50 values and fitting dose response curves of the compounds.

For another test, the target named is T2, TLR8 (Homo sapiens, UniProt Q9NR97).
T2 construct: host or cells: HEK293 (HEK-BLUE-hTLR8)
T2 sequence (Q9NR97 27-1041): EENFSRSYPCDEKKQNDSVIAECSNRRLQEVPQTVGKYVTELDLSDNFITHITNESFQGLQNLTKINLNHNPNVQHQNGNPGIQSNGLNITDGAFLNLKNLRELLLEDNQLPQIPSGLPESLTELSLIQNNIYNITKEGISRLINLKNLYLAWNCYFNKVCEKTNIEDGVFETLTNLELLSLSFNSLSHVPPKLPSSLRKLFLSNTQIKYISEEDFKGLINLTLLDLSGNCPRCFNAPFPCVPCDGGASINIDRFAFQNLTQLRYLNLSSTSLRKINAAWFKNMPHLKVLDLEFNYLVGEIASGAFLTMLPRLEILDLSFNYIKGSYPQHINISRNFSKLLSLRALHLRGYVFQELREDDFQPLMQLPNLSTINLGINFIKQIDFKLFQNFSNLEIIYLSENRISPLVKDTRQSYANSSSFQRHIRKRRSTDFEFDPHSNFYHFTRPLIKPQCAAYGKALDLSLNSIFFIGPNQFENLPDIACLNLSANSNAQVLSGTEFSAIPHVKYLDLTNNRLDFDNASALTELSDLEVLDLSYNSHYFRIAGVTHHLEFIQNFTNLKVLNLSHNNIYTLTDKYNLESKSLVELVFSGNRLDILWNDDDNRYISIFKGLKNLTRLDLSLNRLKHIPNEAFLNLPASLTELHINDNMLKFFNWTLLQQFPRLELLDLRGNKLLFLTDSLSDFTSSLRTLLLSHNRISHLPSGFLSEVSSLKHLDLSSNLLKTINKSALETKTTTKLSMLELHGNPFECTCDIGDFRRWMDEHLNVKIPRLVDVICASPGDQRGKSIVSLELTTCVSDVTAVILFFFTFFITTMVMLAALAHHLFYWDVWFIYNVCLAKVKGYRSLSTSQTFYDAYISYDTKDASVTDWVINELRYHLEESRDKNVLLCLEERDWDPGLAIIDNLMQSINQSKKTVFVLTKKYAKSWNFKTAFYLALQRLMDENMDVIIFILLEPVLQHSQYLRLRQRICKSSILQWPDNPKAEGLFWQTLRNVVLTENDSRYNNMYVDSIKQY
Kind of test: TLR8 cell based assay (HEK-BLUE-hTLR8, SEAP reporter linked to NF-κB activation). Particulars: HEK-BLUE-hTLR8 cells. A digest of the protocol:
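HEK-BLUE-hTLR8 cells (40,000/well) exposed 24 h at 37° C, 5% CO2 to compound, 10 points from 0.5 nM to 15 μM, 0.5% DMSO. Supernatant SEAP read with QUANTI-Blue (1.5 h, 37° C) at OD 650 nm; activation % normalized to DMSO and TLR8 agonist control, EC50 fitted.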

[1] abbreviates: 24 h treatment, SEAP/QUANTI-Blue readout.

Where only a bound is given, the exact number is not on record here.

In general, EC50 refers to the concentration at which the effect is half-maximal. Take `CCCN(CCC)C(=O)C1=Cc2ccc(-c3ccc4c(=O)n(CCS(C)(=O)=O)ncc4c3)cc2N=C(N)C1` [Compound 1-8-5]: the EC50 on TLR7 was > 50 µM; at TLR8 (setting [1]), < 0.1 µM; on TLR8 (bound stated), < 0.01 µM.

On to `CCCN(CCC)C(=O)C1=Cc2ccc(-c3ccc4c(=O)n(CCS(=O)(=O)CC)ncc4c3)cc2N=C(N)C1` [Compound 1-8-12], for which the results for the EC50 at TLR7 and on TLR8 (setting [1]) were 10 to 50 µM and < 0.1 µM, respectively.

As for `CCCN(CCC)C(=O)C1=Cc2ccc(-c3ccc4c(=O)n(CCS(C)(=O)=O)c(=O)n(C)c4c3)cc2N=C(N)C1` [Compound 1-9-4], the EC50 at TLR7 was > 50 µM; on TLR8 (setting [1]), 0.1 to 1 µM.

For `CCCN(CCC)C(=O)C1=Cc2ccc(-c3ccc4c(=O)n(Cc5ccn(C)n5)ccc4c3)cc2N=C(N)C1` [Compound 1-2-35], the values for the EC50 on TLR7 and on TLR8 (setting [1]) were > 50 µM and < 0.1 µM, respectively.

For `CCCN(CCC)C(=O)C1=Cc2ccc(-c3ccc4c(=O)n(CCNC(C)=O)ccc4c3)cc2N=C(N)C1` [Compound 1-2-18], the results for the EC50 at TLR7 and on TLR8 (setting [1]) were > 50 µM and < 0.1 µM, respectively.

Take `CCCN(CCC)C(=O)C1=Cc2ccc(-c3ccc4c(=O)n(CCOP(=O)(OC)OC)ccc4c3)cc2N=C(N)C1` [Compound 1-2-45]: the results for the EC50 on TLR7 and at TLR8 (setting [1]) were 10 to 50 µM and < 0.1 µM, respectively.

Regarding `CCCN(CCC)C(=O)C1=Cc2ccc(-c3ccc4c(=O)n(CC(C)(C)O)c(C)cc4c3)cc2N=C(N)C1` [Compound 1-2-9], the 50% effective concentration (EC50) was > 50 µM at TLR7 and < 0.1 µM at TLR8 (setting [1]).

With `CCCN(CCC)C(=O)C1=Cc2ccc(-c3ccc4c(=O)n(CCN)ccc4c3)cc2N=C(N)C1` [Compound 1-2-17], the EC50 on TLR7 was > 50 µM; at TLR8 (setting [1]), < 0.1 µM.

Turning to `CCCN(CCC)C(=O)C1=Cc2ccc(-c3ccc4c(=O)n(CCOC)ccc4c3)cc2N=C(N)C1` [Compound 1-2-14], the figures for the EC50 on TLR7 and at TLR8 (setting [1]) were > 50 µM and < 0.1 µM, respectively.

For `CCCN(CCC)C(=O)C1=Cc2ccc(-c3ccc4c(c3)CCN(CCO)C4=O)cc2N=C(N)C1` [Compound 1-4-10], the EC50 was > 50 µM at TLR7 and 0.1 to 1 µM at TLR8 (setting [1]).

Take `CCCN(CCC)C(=O)C1=Cc2ccc(-c3ccc4c(=O)n(CC(=O)NC)ccc4c3)cc2N=C(N)C1` [Compound 1-2-21]: the EC50 at TLR7 was > 50 µM; on TLR8 (setting [1]), < 0.1 µM.

For the compound `CCCN(CCC)C(=O)C1=Cc2ccc(-c3ccc4c(=O)n(Cc5nncn5C)ccc4c3)cc2N=C(N)C1` [Compound 1-2-36], the figures for the EC50 on TLR7 and on TLR8 (setting [1]) were 10 to 50 µM and < 0.1 µM, respectively.

As for `CCCN(CCC)C(=O)C1=Cc2ccc(-c3ccc4c(=O)n(CCSC)ccc4c3)cc2N=C(N)C1` [Compound 1-2-22], the EC50 is > 50 µM at TLR7 and < 0.1 µM on TLR8 (setting [1]).

Regarding `CCCN(CCC)C(=O)C1=Cc2ccc(-c3ccc4c(=O)n(CC(C)(C)O)ncc4c3)cc2N=C(N)C1` [Compound 1-8-4], the values for the EC50 at TLR7 and at TLR8 (setting [1]) were > 50 µM and < 0.1 µM, respectively.

`CCCN(CCC)C(=O)C1=Cc2ccc(-c3ccc4c(=O)n(CC(N)=O)ccc4c3)cc2N=C(N)C1` [Compound 1-2-10]: the values for the EC50 on TLR7 and on TLR8 (setting [1]) were > 50 µM and < 0.1 µM, respectively.

On to `CCCN(CCC)C(=O)C1=Cc2ccc(-c3ccc4c(=O)n(CCn5cccn5)ccc4c3)cc2N=C(N)C1` [Compound 1-2-32], for which the figures for the EC50 on TLR7 and at TLR8 (setting [1]) were 1 to 10 µM and < 0.1 µM, respectively.

Turning to `CCCN(CCC)C(=O)C1=Cc2ccc(-c3ccc4c(=O)n(CCO)c(C)cc4c3)cc2N=C(N)C1` [Compound 1-2-8], the EC50 at TLR7 is > 50 µM; at TLR8 (setting [1]) it was < 0.1 µM.

Take `CCCN(CCC)C(=O)C1=Cc2ccc(-c3ccc4c(=O)n(CCO)cnc4c3)cc2N=C(N)C1` [Compound 1-7-4]: the EC50 at TLR7 is > 50 µM; at TLR8 (setting [1]), < 0.1 µM.

Turning to `CCCN(CCC)C(=O)C1=Cc2ccc(-c3ccc4c(=O)n(Cc5nccn5C)ccc4c3)cc2N=C(N)C1` [Compound 1-2-33], the EC50 on TLR7 is > 50 µM; on TLR8 (setting [1]), < 0.1 µM.

In the case of `CCCN(CCC)C(=O)C1=Cc2ccc(-c3ccc4c(=O)n(CCS(C)(=O)=O)cnc4c3)cc2N=C(N)C1` [Compound 1-7-2], the EC50 at TLR7 was > 50 µM; at TLR8 (setting [1]) it was 0.1 to 1 µM.

On to `CCCN(CCC)C(=O)C1=Cc2ccc(-c3ccc4c(=O)n(Cc5nnnn5C)ccc4c3)cc2N=C(N)C1` [Compound 1-2-40], for which the EC50 at TLR7 is > 50 µM; on TLR8 (setting [1]) it was < 0.1 µM; on TLR8 (bound stated), < 0.01 µM.

Regarding `CCCN(CCC)C(=O)C1=Cc2ccc(-c3ccc4c(c3)CN(CCO)C4=O)cc2N=C(N)C1` [Compound 1-3-2], the EC50 is > 50 µM on TLR7 and < 0.1 µM on TLR8 (setting [1]).

As for `CCCN(CCC)C(=O)C1=Cc2ccc(-c3ccc4c(=O)n(CCO)ncc4c3)cc2N=C(N)C1` [Compound 1-8-3], the EC50 at TLR7 is > 50 µM; on TLR8 (setting [1]), < 0.1 µM.

`CCCN(CCC)C(=O)C1=Cc2ccc(-c3ccc4c(c3)CCN(CC(C)(C)O)C4=O)cc2N=C(N)C1` [Compound 1-4-2]: the EC50 on TLR7 was > 50 µM; on TLR8 (setting [1]), < 0.1 µM.

Source of the values: patent publication US10669252B2, “Benzazepine derivative, preparation method, pharmaceutical composition and use thereof” (SHANGHAI DE NOVO PHARMATECH CO., LTD., priority 2016, dated 2020).
